# Data as given in patent US5225411A, “Disubstituted polymethyleneimines” (priority 1990, dated 1993).
# Tests used:
# line P 388/ADR 10 = assay: Flow cytometry, increase in fluorescence of ADR on the line P 388/ADR 10; format: cell-based, murine; conditions: ADR 50 μM, 5 h
# Description: (§1) By measuring that fluorescence it is possible to obtain a relative measurement of the intracellular concentration of ADR.
# (§2) […] After 5 hours' incubation, the intracellular uptake of adriamycin was evaluated by FCM.
# (§3) The analysis of each of the samples was carried out on a total of 10,000 cells at a speed of 1000 cells/sec.
# (§4) The results were presented in the form of linear histograms of the intracellular ADR fluorescence.
# (§5) Expression of the Results
# (§6) For each of the histograms, the channel mean fluorescence was determined by the apparatus information system. For all experiments:
# (§7) A negative control (cells without ADR) fixed the autofluorescence threshold.
# (§8) A positive control (cells with ADR) determined the MEAN value=MN1.
# (§9) The "test" tubes (cells with ADR and with compound) were used to determine, for each of the compounds and at each of the concentrations, the MEAN values=MN2.
# (§10) The results are expressed in the form of variations from the mean fluorescence obtained for each of the "test" tubes (MN2) in relation to the mean fluorescence obtained with the […] (MNl) : VAR-MEAN=MN2 -MN1. The parameter expressed is thus the increase in the fluorescence of adriamycin in the presence of the tested compounds.
# [1] = test system: Chinese Hamster Pulmonary Line DC-3F/AD; assay: Increase in the cytotoxicity of actinomycin D on the Chinese hamster pulmonary line DC-3F/AD; format: cell-based; conditions: 4 days;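 also: DC-3F/AD is an extremely resistant cell line whose resistance factor exceeds 10,000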
# Description: The cytotoxic agent used was actinomycin D.
# Line DC-3F/AD is an extremely resistant line. Its resistance factor is higher than 10,000.
# [2] = test system: murine leukaemia P 388/ADR 10; assay: Evaluation of the increase in cytotoxicity of adriamycin on the line P 388/ADR-10 in vitro (reversion factor); format: cell-based; conditions: adriamycin, P 388/ADR-10, 48 h, TOX = toxic
# Description: In this study, the cytotoxicity of adriamycin was measured in the absence and in the presence of the reversing compound.
# The compounds tested for their capacity to reverse MDR are added at the same time as the cytotoxic agent. The cells are then incubated for 48 hours.
# line DC-3F/AD = assay: Flow cytometry, increase in fluorescence of ADR on the line DC-3F/AD; format: cell-based, Chinese Hamster; conditions: ADR 50 μM, 5 h
# Description: as §1, §2, §3, §4, §5, §6, §7, §8, §9, §10
Structure (SMILES),Increase in fluorescence of ADR (VAR-MEAN = MN2 - MN1) (line P 388/ADR 10; compound 2 μM),Increase in fluorescence of ADR (VAR-MEAN = MN2 - MN1) (line P 388/ADR 10; compound 5 μM),Increase in fluorescence of ADR (VAR-MEAN = MN2 - MN1) (line P 388/ADR 10; compound 10 μM),Increase in fluorescence of ADR (VAR-MEAN = MN2 - MN1) (line P 388/ADR 10; compound 20 μM),Reversion Factor (RF) ([1]; compound 5 μM),Reversion Factor (RF) ([1]; compound 10 μM),Reversion Factor (RF) ([1]; compound 20 μM),Reversion Factor (RF) ([2]; compound 2.5 μM),Reversion Factor (RF) ([2]; compound 5 μM),Reversion Factor (RF) ([2]; compound 10 μM),Increase in fluorescence of ADR (VAR-MEAN = MN2 - MN1) (line DC-3F/AD; compound 2 μM),Increase in fluorescence of ADR (VAR-MEAN = MN2 - MN1) (line DC-3F/AD; compound 5 μM),Increase in fluorescence of ADR (VAR-MEAN = MN2 - MN1) (line DC-3F/AD; compound 10 μM),Increase in fluorescence of ADR (VAR-MEAN = MN2 - MN1) (line DC-3F/AD; compound 20 μM),Reversion Factor (RF) ([1]; compound 2.5 μM)
CN(C)CCCN1c2ccccc2Sc2ccc(Cl)cc21 [CHLOROPROMAZINE],3.30,5.15,4.60,6.20,< 13,< 12,< 13,,,,,,,,
COc1ccc([C@@H]2Sc3ccccc3N(CCN(C)C)C(=O)[C@@H]2OC(C)=O)cc1 [DILTIAZEM],3.10,6.65,13.45,23.15,< 11,< 10,< 11,,,,,,,,
OCCN(CCO)c1nc(N2CCCCC2)c2nc(N(CCO)CCO)nc(N3CCCCC3)c2n1 [DIPYRIDAMOLE],2.35,7.55,21.75,40.00,< 12,< 11,< 12,,,,,,,,
"C=CCNc1nc(NCC=C)nc(N2CCC(SCCC(c3ccccc3)c3ccccc3)CC2)n1 [Example 2, 1-[4,6-bis(allylamino)-2-s-triazinyl]-4-(3,3-diphenylpropylthio)piperidine]",,,,,17,171,,15.4,65.1,86.4,0.2,10.4,25.1,35.0,
Fc1ccc(C(c2ccc(F)cc2)N2CCN(C/C=C/c3ccccc3)CC2)cc1 [FLUNARIZINE],7.35,10.10,19.90,41.00,< 13,16,TOX,,,25,,,,,
COC(=O)C1=C(C)NC(C)=C(C(=O)OC)C1c1ccccc1[N+](=O)[O-] [NIFEDIPINE],0.00,0.80,5.95,3.40,,,,,,,,,,,
c1ccc2c(c1)Nc1ccccc1S2 [PHENOTHIAZINE],0.00,0.00,0.00,0.00,< 12,< 12,< 12,9.4,23.1,,,,,,
O=c1[nH]c2ccccc2n1C1CCN(CCCC(c2ccc(F)cc2)c2ccc(F)cc2)CC1 [PIMOZIDE],25.60,49.42,73.13,73.64,28,78,TOX,,,,5.85,8.85,15.65,21.60,< 10
CC(=O)[C@H]1CC[C@H]2[C@@H]3CCC4=CC(=O)CC[C@]4(C)[C@H]3CC[C@]12C [PROGESTERONE],1.85,1.00,6.85,11.80,< 10,< 10,13,,1.7,2.5,,,,,
CCN(CC)CCCC(C)Nc1c2ccc(Cl)cc2nc2ccc(OC)cc12 (stereo not drawn) [QUINACRINE],11.83,15.73,27.73,52.77,< 13,< 12,TOX,,,,2.00,10.5,19.1,25.8,
C=C[C@H]1C[N@@]2CC[C@H]1C[C@@H]2[C@@H](O)c1ccnc2ccc(OC)cc12 [QUINIDINE],6.65,12.80,22.00,29.90,< 12,< 12,< 12,,6,17.4,,,,,
C=C[C@H]1C[N@@]2CC[C@H]1C[C@H]2[C@H](O)c1ccnc2ccc(OC)cc12 [QUININE],4.85,5.40,12.00,18.90,< 10,< 10,< 11,,,14.5,,,,,
CN1CCN(CCCN2c3ccccc3Sc3ccc(C(F)(F)F)cc32)CC1 [TRIFLUOPERAZINE],11.45,14.75,34.55,51.05,< 12,38,TOX,,,,0.00,0.00,4.10,13.40,
COC(=O)[C@@H]1[C@H]2C[C@H]3c4[nH]c5ccccc5c4CCN3C[C@@H]2CC[C@@H]1O [YOHIMBINE],2.30,0.05,4.70,3.45,< 12,< 12,< 12,,,,,,,,
COc1ccc(CCN(C)CCCC(C#N)(c2ccc(OC)c(OC)c2)C(C)C)cc1OC (stereo not drawn) [reference compound],9.89,21.90,39.62,56.50,,,,,,,2.00,2.60,7.55,11.45,
